Drawing on a melting point compilation (Tetko et al.; mined from patent text by program, amines drawn as free bases though some values may be those of a salt), this text covers melting point for 88 molecules.

Some results are limits rather than exact numbers.

For orientation: melting point means the temperature, or range, at which the solid turns liquid.

For the molecule `CC(=O)c1noc2ccccc12`, the melting point lay within 30 to 32 °C.

Regarding `c1ccc(-c2ccc3c(c2)CCN(Cc2c[nH]c4ncccc24)C3)cc1`, the melting point lay within 211 to 213 °C.

The molecule `C[C@H](C(=O)N[C@H](CO)Cc1ccccc1)c1ccc(NS(C)(=O)=O)c(F)c1` returned a melting point of 150 to 153 °C.

Turning to `CC1=C(C(=O)OCCN(C)Cc2ccc(Cl)cc2)C(c2cccc([N+](=O)[O-])c2)C(C(=O)OCC2CC2)=C(C)N1` (stereo not drawn), the melting point was 115 to 116 °C.

`Cc1ccc(N=C2NCCN2)cc1NS(C)(=O)=O` yielded a melting point of 124 to 126 °C.

Regarding `CCCc1cc(Nc2ccn(-c3ccccc3)n2)cc(CCC)c1OC(C)=O`, the melting point fell in the range of 71 to 74 °C.

Molecule `NS(=O)(=O)c1cc(S(N)(=O)=O)c(-c2ccccc2)cc1F` registered a melting point of 174 to 175 °C.

Regarding `COc1ccc(CSc2nnc(-c3ccc4c(c3)CCO4)o2)cc1Cl`, the melting point lay within 136 to 137 °C.

With `CCCCn1c(=O)n(OCc2ccccc2)c(=O)c2cc(F)c(Cl)nc21`, the melting point fell in the range of 147 to 148 °C.

`CC(N/C(C#N)=C(\N)C#N)c1ccc(Cl)cc1` (stereo not drawn) gave a melting point of 145 to 146 °C.

For the molecule `Cc1noc(C)c1Cn1cc(NC(=O)c2ccccn2)cn1`, the melting point is 135 to 137 °C.

`CNc1n[nH]c(=O)n1N=C(C)CC(C)C` showed a melting point of 136 °C.

Take `NCC(=O)NCCCn1cc(-c2ccccc2)c2ccccc2c1=O`: the melting point stood at 141 °C.

The molecule `CCOC(=O)c1nn(-c2ccccc2)c2c1Cc1ccccc1-2` returned a melting point of 110 to 112 °C.

Turning to `O=C1Cc2ccccc2-c2cc(-c3ccccc3)nn21`, the melting point lay within 181 to 183 °C.

As for `CC(=O)CCN1C[C@H]2Cc3ccccc3[C@H](c3ccccc3)[C@H]2C1` (racemic), the melting point was 121 to 124 °C.

For `O=c1cc(-c2ccc(F)cc2)oc(N2CCOCC2)c1`, the melting point was in the range of 216 to 217 °C.

For the molecule `Cn1c(COc2ccc(CC3SC(=O)NC3=O)cc2)nc2ccc(Oc3ccccn3)cc21` (stereo not drawn), the melting point lay in the range of 200 to 210 °C.

Consider `NC(=O)c1c(Cl)c(-c2ccccc2)n2c1CN(C(=O)c1ccco1)CC2`, for which the melting point lay within 238 to 239 °C.

In turn, `CNC(=O)Cn1nc(-c2ccc(OC)cc2)cc(C(=O)NC)c1=O` gave a melting point of 250 to 251 °C.

Molecule `COc1cc2c(Nc3ccc(Cl)cc3F)ncnc2cc1OCCN1C(=O)CCCC1=O` returned a melting point of 202 to 203 °C.

Regarding `Cc1cnc2c(Cl)cnn2c1-c1cccc(C(F)(F)F)c1`, the melting point lay in the range of 195 to 197 °C.

`COC1CCN(S(=O)(=O)c2ccc([N+](=O)[O-])cc2C(F)(F)F)CC1` displayed a melting point of 141 to 143 °C.

Take `CCNc1c(-c2ccccc2C)nc2c3cc(OC)ccc3ccn12`: the melting point lay in the range of 153 to 154 °C.

For the molecule `CS(=O)(=O)c1ccc(-c2nn(Cc3ccccc3)c(=S)cc2-c2ccc(F)cc2)cc1`, the melting point amounted to 182 °C.

Regarding `CCOC(=O)Cc1ccc(CC2(CNS(=O)(=O)c3ccc(Cl)cc3)CCCC2)cc1`, the melting point is 117 to 119 °C.

As to `CCCCCCC1C(=O)NC(C(=O)SCCNC(C)=O)(C(O)C2C=CCCC2)C1(C)O` (stereo not drawn), the melting point was 82 °C.

`Cc1cc(F)ccc1Nc1c(C(=O)C(C)C)cnc2c(CO)cccc12` returned a melting point of 139 to 140 °C.

As to `CSc1nnc2n1C=C(C)c1ccccc1C2`, the melting point lay within 129 to 130 °C.

For the molecule `O=C(O)CC1CCCc2c1n(Cc1ccc(F)cc1)c1c(F)cc(F)cc21` (stereo not drawn), the melting point fell in the range of 195 to 196 °C.

Take `CCn1c(Oc2cccc(N3CCNCC3)c2)nnc1[C@@H](C)NS(=O)(=O)c1ccc(Cl)c(Cl)c1`: the melting point lay in the range of 175 to 178 °C.

For the molecule `COC(=O)C(CC(C)C)NC(=O)c1cc([N+](=O)[O-])cc([N+](=O)[O-])c1` (stereo not drawn), the melting point was 143 to 145 °C.

As to `COCc1cn(-c2cccc(C(F)(F)F)c2)nc(C(=O)OC)c1=O`, the melting point fell in the range of 138 to 140 °C.

As to `CCOC(=O)Nc1ccc2c(c1)c(N)nn2C(=O)OCC`, the melting point lay within 173 to 174 °C.

Molecule `Cc1nc2c(c(-c3ccccc3)nn2C)c(-c2ccc(F)cc2)c1CO` returned a melting point of 231 to 236 °C.

Molecule `Nc1ncnc2c1c(-c1ccccc1)cn2-c1cccc(C(=O)NCCO)c1` gave a melting point of 194 to 198 °C.

`CC(C)(C)c1c(Cl)nc(Cl)nc1Cl` yielded a melting point of 58 to 59 °C.

`CCC(=O)OCc1ccc(-c2[nH]c(-c3cccc4ccccc34)nc2C(=O)Nc2nccs2)cc1` showed a melting point of 281 to 283 °C.

Regarding `Cc1nn(-c2cncc(F)c2)cc1-c1cccc(C(F)(F)F)n1`, the melting point fell in the range of 130 to 131 °C.

The molecule `Fc1ccc(OC2CCN(CCc3c[nH]c4ccc(OCc5ccccc5)cc34)CC2)cc1` registered a melting point of 134 to 136 °C.

Consider `CC1CC(=O)NN=C1c1ccc(N2CCNCC2)c(N)c1` (stereo not drawn), for which the melting point was in the range of 244 to 245 °C.

Turning to `CC(C)(C)NCC(O)c1cc(Cl)c(NC(=O)NC(C)(C)C)c(Cl)c1` (stereo not drawn), the melting point fell in the range of 167 to 169 °C.

Consider `CCCNC(=O)c1nnc(NCc2cc(Br)ccc2OCc2ccccc2)s1`, for which the melting point was 154 °C.

Regarding `CC1(C#N)CN(C(c2ccccc2)c2ccccc2)C1`, the melting point was 78 to 80 °C.

As to `O=C(Nc1ccc(Cl)cc1)C(Oc1cccc2ccccc12)C1CC1` (stereo not drawn), the melting point lay within 204 to 206 °C.

Turning to `Nc1c(-c2ccc(O)cc2)nnn1-c1ccc(C(F)(F)F)cc1Cl`, the melting point was in the range of 161 to 162 °C.

Regarding `N#Cc1cccc(-c2ccco2)n1`, the melting point lay in the range of 90.2 to 90.3 °C.

In turn, `COP1(=S)OCc2cc(C)cnc2O1` (stereo not drawn) showed a melting point of 74 to 75 °C.

`COc1cc2cc3c(ccc4ccccc43)nc2cc1OC` returned a melting point of 181 to 182 °C.

`O=C(Nc1cccc(-c2c(-c3ccccc3C(F)(F)F)cnc3c(C(F)(F)F)cccc23)c1)Nc1ccccc1Cl` yielded a melting point of 230 to 232 °C.

Take `CC(C)N(CCOc1ccc(CC2SC(=O)NC2=O)cc1)c1nc2ccccc2o1` (stereo not drawn): the melting point worked out at 66 °C.

For the molecule `N#Cc1cccc(CCC(=O)O)c1`, the melting point amounted to 95 °C.

As for `Clc1cccc(Cn2cnc3c(-c4ccco4)nc(Cl)nc32)c1`, the melting point fell in the range of 196 to 198 °C.

Molecule `CCOC(=O)C1=C(C)NC(CCN(C)C)=C(C(=O)OCC)C1c1ccccc1/C=C/C(=O)OC(C)(C)C` (stereo not drawn) came in with a melting point of 150 to 151 °C.

Consider `Cc1cc(-c2cc(C(F)(F)F)n3ncc(C(=O)Nc4cccc(S(=O)(=O)N5CCOCC5)c4)c3n2)ccc1Cl`, for which the melting point was found to be 251 °C.

On to `COc1ccc2c(c1)c1c3c(c(-c4c(Cl)cccc4Cl)cc1n2CCC(N)=O)C(=O)NC3=O`, for which the melting point was 261 to 264 °C.

Turning to `Cn1nc(O[C@@H]2c3cc(C#N)ccc3OC(CF)(CF)[C@H]2O)ccc1=O` (relative stereo), the melting point was in the range of 215 to 217 °C.

`CCOCC1CN2CCC1CC2` (stereo not drawn): the melting point is 73 to 77 °C.

The molecule `O=Cc1cnc2sc3c(n12)CCCCCC3` gave a melting point of 106 to 107 °C.

On to `CCCCCC(C)C(C)c1cc(O)c2c(c1)OC(C)(C)C1=C2CN(CC(=O)N(C)C)CC1` (stereo not drawn), for which the melting point is 122 to 124 °C.

Take `CCCN1C(=O)c2cnc(-c3ccccc3)nc2N(C(=O)CN2CCN(C)CC2)c2ccccc21`: the melting point lay within 148 to 150 °C.

The molecule `CCOC(=O)c1cc2n(C)c3ccccc3c(=O)n2n1` registered a melting point of 239 to 241 °C.

Turning to `COc1ccc(Nc2nc(Cl)nc(NC3CC3)n2)cc1F`, the melting point is 186 °C.

`Cc1nc(NC(=O)OCc2ccccc2)c2n1-c1ccc(Cl)cc1C(c1ccccc1F)=NC2` gave a melting point of 250 to 253 °C.

`Cc1oc2c(NC(=O)c3c(Cl)cccc3Cl)cccc2c1COC(=O)CCCC(=O)NC(P(=O)(O)O)P(=O)(O)O` came in with a melting point of 190 to 195 °C.

For the molecule `CS(=O)(=O)Nn1c(=O)[nH]c2cc([N+](=O)[O-])c(N3CCOCC3)cc2c1=O`, the melting point is greater than 260 °C.

For `O=C(O)C1=Cc2cccc(Cl)c2OC1C(F)(F)F` (stereo not drawn), the melting point fell in the range of 224 to 226 °C.

Take `CC1(C)Cc2c(N)ccc(O)c2O1`: the melting point was determined as 194 °C.

The molecule `Fc1ccc(OCCN2CCC(CNc3nc4ccccc4s3)CC2)cc1` returned a melting point of 117 °C.

`CCCC(c1ccc(C#N)cc1)n1ccnc1` (stereo not drawn) yielded a melting point of 63 to 71 °C.

`CC(=O)NCCCC(=NNC(N)=S)c1ccccc1`: the melting point lay within 74 to 83 °C.

`Cc1ccccc1C=CCC(CCC(=O)O)(C(=O)C=Cc1ccc(Cl)cc1)c1ccccc1` (stereo not drawn) came in with a melting point of 60 to 80 °C.

Consider `FC(F)c1cccc(C#CCCn2nc3ccccc3n2)n1`, for which the melting point was 102 to 103 °C.

`COC(=O)c1ccc(OCCNC(=O)C2Cc3ccccc3N2S(=O)(=O)c2ccc(-c3cccc(C(F)(F)F)c3)cc2)cc1F` (stereo not drawn) came in with a melting point of 63 to 70 °C.

On to `CON(C(=O)c1cn(C)nc1C(F)(F)F)C(CF)Cc1c(Cl)cc(Cl)cc1Cl` (stereo not drawn), for which the melting point was 131 to 133 °C.

For the molecule `Cc1oc(-c2ccccc2)nc1COc1ccc(CCCC2OC(=O)NC2=O)cc1O` (stereo not drawn), the melting point fell in the range of 162 to 164 °C.

In turn, `Cn1nc(O)c(C(F)F)c1Cl` yielded a melting point of 122 to 123 °C.

`O=C(O)CCc1ccc(Oc2ccc3c(c2)S(=O)(=O)NC2CCCN32)cc1` (stereo not drawn) returned a melting point of 178 to 183 °C.

As to `NC(=S)NCC(c1ccccc1)c1ccccc1`, the melting point fell in the range of 205 to 207 °C.

Take `CCCCn1c(=O)c2nn(S(=O)(=O)c3cccc(C(F)(F)F)c3)cc2n(CCCC)c1=O`: the melting point was in the range of 163 to 165 °C.

Consider `CCCC[C@]1(CC)CS(=O)(=O)c2cc(OC)c(Br)cc2[C@@H](c2ccccc2)N1`, for which the melting point lay in the range of 132 to 134 °C.

In the case of `CC(C)CN(CC(=O)O)S(=O)(=O)c1ccc(N2CCC(c3ccccc3)CC2)cc1`, the melting point fell in the range of 140 to 143 °C.

The molecule `CCOC(=O)Cc1ccccc1NC(=O)c1sc2ccc(OC)cc2c1OC(C)C` showed a melting point of 105 to 106 °C.

`C[C@H](N)C(=O)Nn1cccc1`: the melting point fell in the range of 63 to 66 °C.

The molecule `CC(=O)NC(C)CCC1CCN(c2nc3ccc(OCC4CC4)cc3o2)CC1` (stereo not drawn) yielded a melting point of 131 to 132 °C.

With `CCC(=O)NCCc1cnn2ccc3occc3c12`, the melting point lay within 104 to 106 °C.

In the case of `Cc1[nH]c2ccc(OC(C)C(C)N3CCCC3)cc2c1C(=O)OCc1ccccc1` (stereo not drawn), the melting point lay within 94 to 98 °C.

Molecule `c1ccc2c(c1)SCCc1c-2n(CCCN2CCCCC2)c2ccccc12` came in with a melting point of 84 to 87 °C.
